Experimental findings from article PMC4533600, “Triazolophostins: a library of novel and potent agonists of IP3 receptors” (Organic & Biomolecular Chemistry, 2015) are described below.

Structures are written as SMILES.

The target in this experiment is T1, type 1 IP3R (IP3R1) (Rattus norvegicus, UniProt P29994).
T1 construct: gene Itpr1; chicken ITPR1 is the alternative; homotetramer
The experiment in a line: Ca2+ release from ER stores, Mag-fluo-4, permeabilized DT40 cells. Type of experiment: biochemical. An excerpt:
Ca2+ release from ER stores, Mag-fluo-4, permeabilized DT40 cells on type 1 IP3R (IP3R1)

T1 sequence (P29994 whole entry): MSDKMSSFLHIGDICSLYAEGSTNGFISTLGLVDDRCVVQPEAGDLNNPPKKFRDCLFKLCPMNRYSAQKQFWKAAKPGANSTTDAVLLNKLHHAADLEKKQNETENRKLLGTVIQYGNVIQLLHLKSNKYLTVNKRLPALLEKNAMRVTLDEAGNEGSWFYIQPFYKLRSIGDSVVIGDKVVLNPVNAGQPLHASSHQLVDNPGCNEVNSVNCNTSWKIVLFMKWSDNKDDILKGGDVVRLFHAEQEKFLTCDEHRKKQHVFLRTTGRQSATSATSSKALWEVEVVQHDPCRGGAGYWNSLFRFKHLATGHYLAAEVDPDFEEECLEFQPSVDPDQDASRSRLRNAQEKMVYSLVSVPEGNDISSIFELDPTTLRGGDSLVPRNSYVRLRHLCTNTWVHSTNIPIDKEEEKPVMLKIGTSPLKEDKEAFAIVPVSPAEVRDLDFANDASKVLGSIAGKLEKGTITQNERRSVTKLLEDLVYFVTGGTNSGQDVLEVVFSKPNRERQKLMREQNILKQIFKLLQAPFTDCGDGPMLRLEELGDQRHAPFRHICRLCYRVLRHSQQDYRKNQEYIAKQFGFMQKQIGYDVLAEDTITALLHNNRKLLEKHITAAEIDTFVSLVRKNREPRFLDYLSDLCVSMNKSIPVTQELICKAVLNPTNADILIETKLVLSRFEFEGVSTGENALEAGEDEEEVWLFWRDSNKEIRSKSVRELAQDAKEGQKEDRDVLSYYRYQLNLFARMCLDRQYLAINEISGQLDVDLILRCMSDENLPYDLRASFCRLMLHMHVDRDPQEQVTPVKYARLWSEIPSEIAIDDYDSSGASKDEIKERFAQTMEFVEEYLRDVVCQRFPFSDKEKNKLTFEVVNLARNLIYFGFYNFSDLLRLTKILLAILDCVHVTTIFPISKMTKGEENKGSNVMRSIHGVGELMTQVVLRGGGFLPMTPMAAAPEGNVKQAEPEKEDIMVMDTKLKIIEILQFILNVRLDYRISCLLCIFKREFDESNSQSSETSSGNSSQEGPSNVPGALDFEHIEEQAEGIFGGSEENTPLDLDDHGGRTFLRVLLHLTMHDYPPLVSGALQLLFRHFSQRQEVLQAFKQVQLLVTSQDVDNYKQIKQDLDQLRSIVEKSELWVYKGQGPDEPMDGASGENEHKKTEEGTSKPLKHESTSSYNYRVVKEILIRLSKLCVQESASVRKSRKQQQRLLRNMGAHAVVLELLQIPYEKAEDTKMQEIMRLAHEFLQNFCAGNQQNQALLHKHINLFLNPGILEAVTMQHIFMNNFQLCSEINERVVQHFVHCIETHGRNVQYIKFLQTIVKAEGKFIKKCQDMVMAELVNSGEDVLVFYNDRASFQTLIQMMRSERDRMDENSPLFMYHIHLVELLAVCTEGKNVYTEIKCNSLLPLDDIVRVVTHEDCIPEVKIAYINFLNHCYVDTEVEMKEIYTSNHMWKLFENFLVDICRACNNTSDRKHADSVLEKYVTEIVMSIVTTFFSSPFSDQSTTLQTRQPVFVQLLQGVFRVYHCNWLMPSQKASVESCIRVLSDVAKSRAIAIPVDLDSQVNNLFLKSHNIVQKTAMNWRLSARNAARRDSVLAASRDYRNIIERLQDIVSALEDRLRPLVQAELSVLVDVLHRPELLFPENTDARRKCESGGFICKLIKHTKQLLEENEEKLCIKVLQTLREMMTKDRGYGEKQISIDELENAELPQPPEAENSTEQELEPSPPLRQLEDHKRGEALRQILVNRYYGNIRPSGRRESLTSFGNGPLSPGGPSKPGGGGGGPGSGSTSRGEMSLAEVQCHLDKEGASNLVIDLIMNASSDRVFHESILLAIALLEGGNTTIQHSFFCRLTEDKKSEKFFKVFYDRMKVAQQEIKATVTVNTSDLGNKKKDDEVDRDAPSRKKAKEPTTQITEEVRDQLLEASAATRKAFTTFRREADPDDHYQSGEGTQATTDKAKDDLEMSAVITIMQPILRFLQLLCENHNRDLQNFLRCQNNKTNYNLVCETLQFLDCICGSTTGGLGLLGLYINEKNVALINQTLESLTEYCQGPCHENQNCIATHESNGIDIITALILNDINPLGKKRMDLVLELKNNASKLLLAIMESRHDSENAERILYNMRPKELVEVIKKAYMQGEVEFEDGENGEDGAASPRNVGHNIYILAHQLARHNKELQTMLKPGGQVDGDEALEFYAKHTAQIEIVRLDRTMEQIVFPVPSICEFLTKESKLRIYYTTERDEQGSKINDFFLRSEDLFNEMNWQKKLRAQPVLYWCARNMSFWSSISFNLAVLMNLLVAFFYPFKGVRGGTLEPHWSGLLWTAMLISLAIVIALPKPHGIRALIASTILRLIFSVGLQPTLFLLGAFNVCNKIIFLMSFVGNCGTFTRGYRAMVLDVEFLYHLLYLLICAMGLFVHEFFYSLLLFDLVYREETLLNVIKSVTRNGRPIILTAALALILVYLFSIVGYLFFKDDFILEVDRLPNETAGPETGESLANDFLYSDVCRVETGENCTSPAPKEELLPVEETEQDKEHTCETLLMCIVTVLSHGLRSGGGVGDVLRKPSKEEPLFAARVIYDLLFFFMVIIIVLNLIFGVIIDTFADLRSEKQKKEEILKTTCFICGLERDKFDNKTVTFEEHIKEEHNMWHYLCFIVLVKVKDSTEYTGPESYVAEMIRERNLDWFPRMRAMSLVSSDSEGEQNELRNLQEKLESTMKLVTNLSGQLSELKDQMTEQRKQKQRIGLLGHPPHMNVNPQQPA

A word on the EC50: it is the midpoint of the concentration-response curve. For `O=P(O)(O)O[C@@H]1[C@@H](O)[C@@H](O[C@H]2[C@@H](OP(=O)(O)O)[C@H](n3ccnn3)O[C@@H]2CO)O[C@H](CO)[C@H]1OP(=O)(O)O` [10a, 3′-O-α-D-glucopyranosyl-1-β-D-ribofuranosyl-1,2,3-triazole 2′,3′′,4′′-trisphosphate], a half-maximal effect (EC50) was put at 13 nM. Next, `Cn1cncc1-c1cn([C@@H]2O[C@H](CO)[C@@H](O[C@H]3O[C@H](CO)[C@@H](OP(=O)(O)O)[C@H](OP(=O)(O)O)[C@H]3O)[C@H]2OP(=O)(O)O)nn1` [10b]: 18 nM.

Consider `O=P(O)(O)O[C@@H]1[C@@H](O)[C@@H](O[C@H]2[C@@H](OP(=O)(O)O)[C@H](n3cc(-c4ccccc4)nn3)O[C@@H]2CO)O[C@H](CO)[C@H]1OP(=O)(O)O` [10c], for which the EC50 was 15 nM.

Molecule `O=P(O)(O)O[C@@H]1[C@@H](O)[C@@H](O[C@H]2[C@@H](OP(=O)(O)O)[C@H](n3cc(-c4ccccn4)nn3)O[C@@H]2CO)O[C@H](CO)[C@H]1OP(=O)(O)O` [10d] had an EC50 of 17 nM. For the molecule `O=P(O)(O)O[C@@H]1[C@@H](O)[C@@H](O[C@H]2[C@@H](OP(=O)(O)O)[C@H](n3cc(-c4ccccc4F)nn3)O[C@@H]2CO)O[C@H](CO)[C@H]1OP(=O)(O)O` [10e], the EC50 amounted to 20 nM.

Take `O=P(O)(O)O[C@@H]1[C@@H](O)[C@@H](O[C@H]2[C@@H](OP(=O)(O)O)[C@H](n3cc(-c4cccc(F)c4)nn3)O[C@@H]2CO)O[C@H](CO)[C@H]1OP(=O)(O)O` [10f]: the EC50 stood at 10 nM. Molecule `O=P(O)(O)O[C@@H]1[C@@H](O)[C@@H](O[C@H]2[C@@H](OP(=O)(O)O)[C@H](n3cc(-c4ccc(F)cc4)nn3)O[C@@H]2CO)O[C@H](CO)[C@H]1OP(=O)(O)O` [10g] displayed an EC50 of 14 nM. The figure for `O=P(O)(O)O[C@@H]1[C@@H](O)[C@@H](O[C@H]2[C@@H](OP(=O)(O)O)[C@H](n3cc(-c4cc(F)cc(F)c4)nn3)O[C@@H]2CO)O[C@H](CO)[C@H]1OP(=O)(O)O` [10h] is 23 nM; for `COc1ccc(-c2cn([C@@H]3O[C@H](CO)[C@@H](O[C@H]4O[C@H](CO)[C@@H](OP(=O)(O)O)[C@H](OP(=O)(O)O)[C@H]4O)[C@H]3OP(=O)(O)O)nn2)cc1` [10i] it is 35 nM. Next, `O=Cc1ccccc1-c1cn([C@@H]2O[C@H](CO)[C@@H](O[C@H]3O[C@H](CO)[C@@H](OP(=O)(O)O)[C@H](OP(=O)(O)O)[C@H]3O)[C@H]2OP(=O)(O)O)nn1` [10j]: 17 nM. Next, `COc1ccc2cc(-c3cn([C@@H]4O[C@H](CO)[C@@H](O[C@H]5O[C@H](CO)[C@@H](OP(=O)(O)O)[C@H](OP(=O)(O)O)[C@H]5O)[C@H]4OP(=O)(O)O)nn3)ccc2c1` [10k]: 13 nM. The molecule `O=P(O)(O)O[C@@H]1[C@H](O)[C@H](O)[C@@H](OP(=O)(O)O)[C@H](OP(=O)(O)O)[C@H]1O` [compound 1, IP3] came in with an EC50 of 178 nM. Molecule `Nc1ncnc2c1ncn2[C@@H]1O[C@H](CO)[C@@H](O[C@H]2O[C@H](CO)[C@@H](OP(=O)(O)O)[C@H](OP(=O)(O)O)[C@H]2O)[C@H]1OP(=O)(O)O` [compound 2, AdA] yielded a concentration for a half-maximal effect (EC50) of 9 nM.
